From BindingDB's records for doi:10.7270/Q2736PBV (Broad Institute, 2009)

What follows are molecules tested against T1, Streptokinase A (Streptococcus pyogenes serotype M1, UniProt P10520) (assay: S. pyogenes streptokinase expression inhibitors, potency, dose response, plasminogen activation absorbance, OD405 (AID 1914)).
T1 sequence (P10520 whole entry): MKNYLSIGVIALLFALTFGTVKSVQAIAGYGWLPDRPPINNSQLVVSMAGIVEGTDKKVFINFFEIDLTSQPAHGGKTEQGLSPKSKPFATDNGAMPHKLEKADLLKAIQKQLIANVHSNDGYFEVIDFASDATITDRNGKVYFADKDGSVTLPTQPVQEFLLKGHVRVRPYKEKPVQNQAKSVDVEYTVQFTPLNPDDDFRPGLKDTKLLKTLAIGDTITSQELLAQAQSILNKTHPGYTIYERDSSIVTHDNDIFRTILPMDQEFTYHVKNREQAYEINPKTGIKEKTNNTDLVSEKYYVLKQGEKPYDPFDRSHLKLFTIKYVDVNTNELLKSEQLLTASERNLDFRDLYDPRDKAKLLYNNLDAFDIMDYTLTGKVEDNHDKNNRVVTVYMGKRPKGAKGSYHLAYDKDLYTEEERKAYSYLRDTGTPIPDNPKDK
`COC(=O)C1C(C)=NC2=C(C(=O)c3ccccc32)C1c1ccc(-c2ccc(C(=O)O)cc2)o1` (stereo unspecified) [4-{5-[3-(methoxycarbonyl)-2-methyl-5-oxo-4,5-dihydro-1H-indeno[1,2-b]pyridin-4-yl]-2-furyl}benzoic acid] was tested, and the EC50 was greater than 150 µM.
For `CCOc1cc(CN=Nc2cc(C)nc(-n3nc(C)cc3C)n2)ccc1O` [4-{[2-(3,5-Dimethyl-pyrazol-1-yl)-6-methyl-pyrimidin-4-yl]-hydrazonomethyl}-2-ethoxy-phenol], the EC50 was greater than 150 µM.
Work on `CC1(C)CC(=O)C(C2C3=C(CC(C)(C)CC3=O)Oc3c(Br)cc(Br)cc32)C(=O)C1` (stereo unspecified) [5,7-bis(bromanyl)-9-(4,4-dimethyl-2-oxidanyl-6-oxidanylidene-cyclohexen-1-yl)-3,3-dimethyl-4,9-dihydro-2H-xanthen-1-one] yielded an EC50 of 24.8 µM.
For `Cc1ccsc1C1CC(c2cccc(Br)c2)=Nc2ncnn21` (stereo unspecified) [5-(3-bromophenyl)-7-(3-methylthien-2-yl)-4,7-dihydro[1,2,4]triazolo[1,5-a]pyrimidine], the EC50 was greater than 150 µM.
`Oc1nc(N=NCc2cccs2)sc1Cc1ccc(Cl)c(Cl)c1` [5-[(3,4-dichlorophenyl)methyl]-2-[2-(thiophen-2-ylmethylidene)hydrazinyl]-4-thiazolone] gave an EC50 greater than 150 µM.
For `Oc1ccccc1CN=Nc1nc(O)c(Cc2ccc(F)cc2)s1` [5-[(4-fluorophenyl)methyl]-2-[2-[(E)-(6-oxidanylidenecyclohexa-2,4-dien-1-ylidene)methyl]hydrazinyl]-1,3-thiazol-4-one], the EC50 was greater than 150 µM.
Work on `CCc1ccc2c(c1)=C(NNc1nc(-c3ccccc3)cs1)C(=O)N=2` [5-ethyl-1H-indole-2,3-dione 3-[(4-phenyl-1,3-thiazol-2(3H)-ylidene)hydrazone]] yielded an EC50 greater than 150 µM.
`COc1cc(CN=Nc2nc(Nc3ccccc3)nc(-n3nc(C)cc3C)n2)cc(OC)c1OC` [6-(3,5-dimethylpyrazol-1-yl)-N4-phenyl-N2-[(3,4,5-trimethoxyphenyl)methylideneamino]-1,3,5-triazine-2,4-diamine] showed an EC50 greater than 150 µM.
For `COc1ccc(OC)c(C2CC(C34CC5CC(CC(C5)C3)C4)=NC(=S)N2)c1` (stereo unspecified) [6-Adamantan-1-yl-4-(2,5-dimethoxy-phenyl)-3,4-dihydro-1H-pyrimidine-2-thione], the EC50 was 14.7 µM.
Molecule `CCOc1cccc(CN=Nc2ccc(S(=O)(=O)N(CC)CC)cn2)c1O` [6-[2-[(E)-(5-ethoxy-6-oxidanylidene-cyclohexa-2,4-dien-1-ylidene)methyl]hydrazinyl]-N,N-diethyl-pyridine-3-sulfonamide] has an EC50 greater than 150 µM.
Work on `O=Nc1c(C2C(=O)Nc3cc(Br)ccc32)[nH]c2ccccc12` (stereo unspecified) [6-bromoindirubin-3-oxime] yielded an EC50 of 44.9 µM.
In the case of `CC(N=Nc1nc2ccc(Cl)cc2o1)c1ccccc1` (stereo unspecified) [6-chloranyl-N-(1-phenylethylideneamino)-1,3-benzoxazol-2-amine], the EC50 is reported as greater than 150 µM.
For `O=c1ccc2[n+]([O-])c3ccccc3n(O)c-2c1` [10-hydroxy-5-oxidophenazin-5-ium-2-one], the EC50 was greater than 150 µM.
`CC(N=Nc1nc(N2CCCCCC2)nc(N2CCCCCC2)n1)c1ccccc1` (stereo unspecified) [(1E)-1-phenylethanone (4,6-diazepan-1-yl-1,3,5-triazin-2-yl)hydrazone] was tested, and the EC50 was 5.5 µM.
In the case of `CC(=O)c1cccc2c1NC(=C1Nc3ccccc3C1=O)C2=O` [(2E)-7-ethanoyl-2-(3-oxidanylidene-1H-indol-2-ylidene)-1H-indol-3-one], the EC50 is reported as 116 µM.
Molecule `CCOC(=O)C1=C(Cc2ccc(CC)cc2)C(=O)c2ccccc2C1=O` [(2E,3Z)-2-[ethoxy(hydroxy)methylidene]-3-[(4-ethylphenyl)methylidene]naphthalene-1,4-dione] has an EC50 greater than 150 µM.
`Cc1ccc(SCC(=O)C(C#N)c2nc3ccccc3s2)cc1` (stereo unspecified) [(2Z)-2-(3H-1,3-benzothiazol-2-ylidene)-3-keto-4-(p-tolylthio)butyronitrile] showed an EC50 greater than 150 µM.
`N#CC(C(=O)COc1ccccc1)c1nc2ccccc2s1` (stereo unspecified) [(2Z)-2-(3H-1,3-benzothiazol-2-ylidene)-3-keto-4-phenoxy-butyronitrile] was tested, and the EC50 was 7.55 µM.
`N#CC(C(=O)CN1CCN(c2ccccc2F)CC1)c1nc(-c2ccccc2)cs1` (stereo unspecified) [(2Z)-4-[4-(2-fluorophenyl)piperazin-1-yl]-3-oxidanylidene-2-(4-phenyl-3H-1,3-thiazol-2-ylidene)butanenitrile] was tested, and the EC50 was greater than 150 µM.
For `Cc1nc(N=NCc2ccc3c(c2)OCO3)sc1C` [(4,5-dimethylthiazol-2-yl)-(piperonylideneamino)amine], the EC50 was greater than 150 µM.
In the case of `COc1ccc(C(=O)Oc2ccc(C(C)=O)cc2)c(OC)c1` [(4-acetylphenyl) 2,4-dimethoxybenzoate], the EC50 is reported as greater than 150 µM.
Work on `Cc1cc(N=NCc2ccc(O)c(C)c2O)nc(-c2ccccc2O)n1` [(4E)-3-hydroxy-2-methyl-4-[[[(2Z)-6-methyl-2-(6-oxo-1-cyclohexa-2,4-dienylidene)-1H-pyrimidin-4-yl]hydrazo]methylidene]-1-cyclohexa-2,5-dienone] yielded an EC50 greater than 150 µM.
`Oc1ccc(CN=Nc2ccc3ccccc3c2)c(O)c1` [(4E)-3-hydroxy-4-[(2-naphthalenylhydrazo)methylidene]-1-cyclohexa-2,5-dienone] showed an EC50 greater than 150 µM.
For `N=C(N)C1=CC(=O)/C(=C/C=c2ccc(=C(N)N)cc2)C=C1` [(4E)-4-[2-[4-[bis(azanyl)methylidene]cyclohexa-2,5-dien-1-ylidene]ethylidene]-3-oxidanylidene-cyclohexa-1,5-diene-1-carboximidamide;2-oxidanylethanesulfonic acid], the EC50 was 20 µM.
`COc1ccc(C2=N/C(=C\c3c(C)[nH]c4ccccc34)C(=O)O2)cc1` [(4Z)-2-(4-methoxyphenyl)-4-[(2-methyl-1H-indol-3-yl)methylidene]-1,3-oxazol-5-one] gave an EC50 greater than 150 µM.
In the case of `CCCOc1ccc(C(=O)C2C(=O)C(=O)N(c3ccccn3)C2c2ccc(OC)cc2)cc1C` (stereo unspecified) [(4Z)-4-[hydroxy-(3-methyl-4-propoxyphenyl)methylidene]-5-(4-methoxyphenyl)-1-(2-pyridinyl)pyrrolidine-2,3-dione], the EC50 is reported as 103 µM.
`C=CCN1C(=O)NC(=O)C(=C(CC)Nc2ccc(N(C)C)cc2)C1=O` [(5E)-5-[1-[4-(dimethylamino)anilino]propylidene]-1-prop-2-enyl-1,3-diazinane-2,4,6-trione] was tested, and the EC50 was greater than 150 µM.
`O=C1N=C(Nc2ccc(F)cc2)SC1=Cc1c[nH]c2ccccc12` [(5Z)-2-[(4-fluorophenyl)amino]-5-(1H-indol-3-ylmethylidene)-1,3-thiazol-4-one] gave an EC50 greater than 150 µM.
`O=[N+]([O-])c1cc(Br)c(O)c(CN=Nc2nnnn2-c2cccc3ccccc23)c1` [(6E)-2-bromo-6-[[2-(1-naphthalen-1-yltetrazol-5-yl)hydrazinyl]methylidene]-4-nitrocyclohexa-2,4-dien-1-one] gave an EC50 greater than 150 µM.
`COc1cccc(N=NCc2cccc(Br)c2O)c1` [(6E)-2-bromo-6-[[2-(3-methoxyphenyl)hydrazinyl]methylidene]cyclohexa-2,4-dien-1-one] gave an EC50 of 19.6 µM.
`COc1cccc(CN=Nc2cc(N3CCOCC3)ncn2)c1O` [(6E)-2-methoxy-6-[[N'-(6-morpholinopyrimidin-4-yl)hydrazino]methylene]cyclohexa-2,4-dien-1-one] was tested, and the EC50 was greater than 150 µM.
`CCOc1ccc(CN=Nc2cc(N3CCOCC3)nc(C)n2)c(O)c1` [(6E)-3-ethoxy-6-[[2-(2-methyl-6-morpholin-4-yl-pyrimidin-4-yl)hydrazinyl]methylidene]cyclohexa-2,4-dien-1-one] was tested, and the EC50 was greater than 150 µM.
`COc1cccc(CN=Nc2nc(Nc3ccccc3)nc(-n3nc(C)cc3C)n2)c1O` [(6E)-6-[[2-[4-(3,5-dimethylpyrazol-1-yl)-6-phenylazanyl-1,3,5-triazin-2-yl]hydrazinyl]methylidene]-2-methoxy-cyclohexa-2,4-dien-1-one] was tested, and the EC50 was greater than 150 µM.
Molecule `CC(=N)C(C#N)C(=O)CSc1nc2cc(Cl)ccc2c(=O)n1Cc1ccco1` (stereo unspecified) [(E)-3-amino-2-[2-[7-chloro-3-(furan-2-ylmethyl)-4-oxoquinazolin-2-yl]sulfanylacetyl]but-2-enenitrile] has an EC50 greater than 150 µM.
Molecule `CC(=N)C(C#N)C(=O)CSc1nc2scc(-c3ccccc3)c2c(=O)n1C` (stereo unspecified) [(E)-3-azanyl-2-[2-(3-methyl-4-oxidanylidene-5-phenyl-thieno[2,3-d]pyrimidin-2-yl)sulfanylethanoyl]but-2-enenitrile] has an EC50 greater than 150 µM.
`Cc1ccc(F)c(NC(=O)C(C#N)C(=O)c2ccc(C(C)(C)C)cc2)c1` (stereo unspecified) [(Z)-2-(4-tert-butylphenyl)carbonyl-3-[(2-fluoranyl-5-methyl-phenyl)amino]-3-oxidanyl-prop-2-enenitrile] was tested, and the EC50 was greater than 150 µM.
In the case of `Cc1ccc(C(=O)CC(=O)C(=O)NC23CC4CC(CC(C4)C2)C3)cc1` [(Z)-N-(1-adamantyl)-4-hydroxy-4-(4-methylphenyl)-2-oxobut-3-enamide], the EC50 is reported as greater than 150 µM.
`CCOc1ccc2[nH]c(=O)c(CN(CC3COCCO3)C(=O)C3CC3)cc2c1` (stereo unspecified) [MLS000031787] was tested, and the EC50 was greater than 150 µM.
`CC(C)c1oc(NC(=O)Nc2ccc(Cl)c(Cl)c2)nc1O` [MLS000053797] gave an EC50 greater than 150 µM.
Molecule `CCCCCCC1=Cc2c/c(=C3/NN=C(c4ccccc4)O3)c(=O)oc2=CC1=O` [MLS000068623] has an EC50 greater than 150 µM.
In the case of `O=C1C2=C3C(=C/C1=C\NNC(=O)c1ccccc1O)CCCN3CCC2` [MLS000332414], the EC50 is reported as greater than 150 µM.
Work on `Cc1cc(Br)c(OCc2ccc(C(=O)NN=C3CC4CCC=C34)cc2)c(Br)c1` (stereo unspecified) [MLS000335385] yielded an EC50 greater than 150 µM.
Molecule `CC(C)CN1C(=O)/C(=N\NC(=O)c2cccc(S(=O)(=O)N3CCCCC3)c2)c2ccccc21` [MLS000417389] has an EC50 greater than 150 µM.
Molecule `CCCCCCCCOC(=O)C1C(C)=Nc2nnnn2C1c1cccs1` (stereo unspecified) [MLS000519969] has an EC50 of 50 µM.
Molecule `CC(NNC(=O)c1ccccc1O)=C1C(=O)c2ccccc2C1=O` [MLS000523164] has an EC50 greater than 150 µM.
In the case of `Clc1ccc(-c2ccc(CN=Nc3cc(N4CCOCC4)nc(N4CCOCC4)n3)o2)cc1` [MLS000527145], the EC50 is reported as greater than 150 µM.
